Assay results as given in patent publication US20210179569A1, “BENZAMIDE COMPOUNDS AND THEIR USE AS HERBICIDES II” (BASF SE, priority 2017, published 2021).

Key:
Test in all cases: post-emergence greenhouse herbicidal test
Assay type in all cases: in vivo
Details in all cases: application rate 250 g/ha, 100 = complete destruction, 0 = no damage
[1] = test system: ECHCG (Echinocloa crus-galli)
Description: (§1) The seeds of the test plants were sown separately for each species. For the post-emergence treatment, the test plants were first grown to a height of 3 to 15 cm, depending on the plant habit, and only then treated with the active ingredients which had been suspended or emulsified in water. For this purpose, the test plants were either sown directly and grown in the same containers, or they were first grown separately as seedlings and transplanted into the test containers a few days prior to treatment. Depending on the species, the plants were kept at 10-25° C. or 20-25° C., respectively. The test period extended over 2 to 4 weeks. During this time, the plants were tended, and their response to the individual treatments was evaluated. Evaluation was carried out using a scale from 0 to 100. 100 means no emergence of the plants, or complete destruction of at least the aerial moieties, and 0 means no damage, or normal course of growth. A good herbicidal activity is given at values of at least 70 and a very good herbicidal activity is given at values of at least 85. At an application rate of 250 g/ha the following compounds were tested in post-emergence tests against: ECHCG (Echinocloa crus-galli) AMARE (Amaranthus retroflexus) CHEAL (Chenopodium album)

[2] = test system: CHEAL (Chenopodium album)
Description: as §1

[3] = test system: AMARE (Amaranthus retroflexus)
Description: as §1

Cn1nnnc1NC(=O)c1cc(Cl)cc(NC(=O)N(C2CC2)C2CC2)c1Cl [Example 1, 2,5-dichloro-3-(dicyclopropylcarbamoylamino)-N-(1-methyltetrazol-5-yl)benzamide]
>80: herbicidal activity against ECHCG (scale from 0 to 100) [1] | herbicidal activity against CHEAL (scale from 0 to 100) [2] | herbicidal activity against AMARE (scale from 0 to 100) [3]

CN(CC(F)(F)F)C(=O)Nc1cc(Cl)cc(C(=O)Nc2nnnn2C)c1Cl [Example 2, 2,5-dichloro-3-[(2,2,2-trifluoroethyl)(methyl)carbamoylamino]-N-(1-methyltetrazol-5-yl)benzamide]
>80: herbicidal activity against ECHCG (scale from 0 to 100) [1] | herbicidal activity against CHEAL (scale from 0 to 100) [2] | herbicidal activity against AMARE (scale from 0 to 100) [3]
